Data: PubChem BioAssay AID248 (DTP/NCI, 2004)
Several values for one entry are separate records, joined by “and”; a condition that tells them apart may be missing. Equal entries are not always repeated. Toxic doses and inconclusive results are not listed. Rule as the data show it: active = T/C of 150% or more; inactive = T/C below 125%. Peptide text beside a SMILES is read from it.

Tested on: L1210 leukemia ip in BDF1 mice, survival T/C
Assay: NCI In Vivo Anticancer Drug Screen. Data for tumor model L1210 Leukemia (intraperitoneal) in B6D2F1 (BDF1) mice
Conditions: endpoint: mean survival time, higher = longer survival
In short: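 Transplantable tumor model; survival measured in treated vs vehicle control mice. Value = treated/control.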

[1] = dose: 100.0 mg/kg/injection, schedule: Q01DX009 (ip), vehicle: saline with Tween-80
[2] = dose: 200.0 mg/kg/injection, schedule: Q01DX009 (ip), vehicle: saline with Tween-80
[3] = dose: 100.0 mg/kg/injection, schedule: Q01DX001 (ip), vehicle: other
[4] = dose: 200.0 mg/kg/injection, schedule: Q01DX001 (ip), vehicle: other
[5] = dose: 400.0 mg/kg/injection, schedule: Q01DX001 (ip), vehicle: other
[6] = dose: 100.0 mg/kg/injection, schedule: Q04DX002 (ip), vehicle: Klucel (hydroxypropylcellulose) (HPC)
[7] = dose: 200.0 mg/kg/injection, schedule: Q04DX002 (ip), vehicle: Klucel (hydroxypropylcellulose) (HPC)
[8] = dose: 400.0 mg/kg/injection, schedule: Q04DX002 (ip), vehicle: Klucel (hydroxypropylcellulose) (HPC)
[9] = dose: 50.0 mg/kg/injection, schedule: Q01DX001 (ip), vehicle: saline
[10] = dose: 100.0 mg/kg/injection, schedule: Q01DX001 (ip), vehicle: saline
[11] = dose: 200.0 mg/kg/injection, schedule: Q01DX001 (ip), vehicle: saline

Measured: T/C

CC1(C)C2CCC1(C(=O)O)C(=O)C2 (configuration not stated)
inactive: [1] 96 % of control | [2] 95 % of control

C=C(C)C#CC(O)(C(=O)OCC)C1CCCC1 (configuration not stated)
inactive: [3] 100 % of control | [4] 93 % of control | [5] 93 % of control

O=C(O)c1ccc(CCCCBr)cc1
inactive: [6] 96 % of control | [7] 100 % of control | [8] 96 % of control

O=C1Nc2ccccc2C1=Nc1ccc2[nH]c3ccccc3c2c1
inactive: dose: 100.0 mg/kg/injection, schedule: Q01DX001 (ip), vehicle: carboxymethylcellulose (CMC) 91 % of control | dose: 200.0 mg/kg/injection, schedule: Q01DX001 (ip), vehicle: carboxymethylcellulose (CMC) 94 % of control | dose: 400.0 mg/kg/injection, schedule: Q01DX001 (ip), vehicle: carboxymethylcellulose (CMC) 91 % of control

C(COCC1CO1)OCC1CO1 (configuration not stated)
inactive: dose: 6.25 mg/kg/injection, schedule: Q01DX009 (ip), vehicle: saline 115 % of control | dose: 12.5 mg/kg/injection, schedule: Q01DX009 (ip), vehicle: saline 110 % of control | dose: 25.0 mg/kg/injection, schedule: Q01DX009 (ip), vehicle: saline 110 % of control and 118 % of control | dose: 100.0 mg/kg/injection, schedule: Q01DX009 (ip), vehicle: saline 120 % of control | dose: 100.0 mg/kg/injection, schedule: Q04DX003 (ip), vehicle: saline 122 % of control | dose: 200.0 mg/kg/injection, schedule: Q01DX Z (ip), vehicle: saline 121 % of control | dose: 200.0 mg/kg/injection, schedule: Q04DX003 (ip), vehicle: saline 91 % of control | dose: 300.0 mg/kg/injection, schedule: Q01DX Z (ip), vehicle: saline 114 % of control | dose: 450.0 mg/kg/injection, schedule: Q01DX Z (ip), vehicle: saline 122 % of control

N#CCC(c1ccccc1)C(C#N)c1ccccc1 (configuration not stated)
inactive: dose: 75.0 mg/kg/injection, schedule: Q01DX001 (ip), vehicle: carboxymethylcellulose (CMC) 97 % of control | dose: 150.0 mg/kg/injection, schedule: Q01DX001 (ip), vehicle: carboxymethylcellulose (CMC) 93 % of control

CCOC(=O)c1ccc(C)[n+]([O-])c1
inactive: [9] 96 % of control | [10] 98 % of control | [11] 100 % of control | dose: 400.0 mg/kg/injection, schedule: Q01DX001 (ip), vehicle: saline 93 % of control

COc1cc(OC)c(NC(=O)C(Cl)(Cl)Cl)cc1Cl
inactive: [6] 98 % of control | [7] 95 % of control | [8] 95 % of control

COc1ccc(C2CCCCCC2OC(=O)c2ccc([N+](=O)[O-])cc2)c(OC)c1OC (configuration not stated)
inactive: [3] 96 % of control | [4] 106 % of control | [5] 96 % of control

COc1cc2c(cc1OC)C(c1ccc(O)c(O)c1)CNC2 (configuration not stated)
inactive: dose: 50.0 mg/kg/injection, schedule: Q01DX009 (ip), vehicle: saline with Tween-80 101 % of control | [1] 100 % of control | [2] 95 % of control

COc1ccc(OC)c(NC(=O)CCl)c1
inactive: dose: 25.0 mg/kg/injection, schedule: Q01DX009 (ip), vehicle: Klucel (hydroxypropylcellulose) (HPC) 96 % of control | dose: 25.0 mg/kg/injection, schedule: Q04DX002 (ip), vehicle: Klucel (hydroxypropylcellulose) (HPC) 96 % of control | dose: 50.0 mg/kg/injection, schedule: Q01DX009 (ip), vehicle: Klucel (hydroxypropylcellulose) (HPC) 98 % of control | dose: 50.0 mg/kg/injection, schedule: Q04DX002 (ip), vehicle: Klucel (hydroxypropylcellulose) (HPC) 93 % of control | dose: 100.0 mg/kg/injection, schedule: Q01DX009 (ip), vehicle: Klucel (hydroxypropylcellulose) (HPC) 89 % of control and 90 % of control | [6] 93 % of control and 106 % of control

CCCC1(CCC)NC(=O)N(CC(N)=O)C1=O
inactive: dose: 100.0 mg/kg/injection, schedule: Q04DX003 (ip), vehicle: saline with Tween-80 100 % of control | dose: 200.0 mg/kg/injection, schedule: Q04DX003 (ip), vehicle: saline with Tween-80 102 % of control | dose: 400.0 mg/kg/injection, schedule: Q04DX003 (ip), vehicle: saline with Tween-80 98 % of control

CC(NC(=O)C(CCC(=O)NCC(=O)O)NC(=O)C(N)Cc1ccc(O)cc1)C(=O)NCC(=O)NC(Cc1ccc(O)cc1)C(=O)NC(CCC(=O)NCC(=O)O)C(=O)NC(C)C(=O)NCC(=O)NCC(=O)O (configuration not stated) (H-YE(Gly)AGYE(Gly)AGG-OH; configuration not given here)
inactive: [9] 92 % of control | [10] 92 % of control | [11] 93 % of control
